Assay: Emulsion stability of Table 1 blending compositions with various emulsifiers
Type: physicochemical
Settings: storage at low temperature; Table 2
Method: The present inventors have prepared various polyoxyalkylene substitution compounds according to the respective synthesis examples and evaluated the emulsion stability for the blending compositions shown in Table 1. The various evaluation items are as follows. “Emulsion Stability” The oil phase component, water phase component, and various emulsifiers shown in Table 1 were mixed, and the emulsification mixing was carried out with a homomixer at 8000 rpm for 1 minute. The appearance was visually observed 30 minutes after emulsification, and the appearances were also observed after being stored for 3 days on standing at room temperature and also at −5° C., respectively. The evaluation criteria were as follows. • ◯ . . . The emulsion was uniform and milky white. • Δ . . . A small amount of floating oil was observed; however, it was milky white. • X . . . Solid matter was observed, or the separation of the water phase and the oil phase was observed.

Row | SMILES | emulsion stability at low temperature (in words)
1 | CCCCCCCCCCCC(=O)N[C@@H](CCC(=O)[O-])C(=O)[O-].[Na+].[Na+] [1-2, Sodium lauroyl-glutamate] | the emulsifier separated out
2 | CCCCCCCCCCCCOS(=O)(=O)[O-].[Na+] [Comparative Examples 1-1, Dodecyl sodium sulfate] | the emulsifier separated out

From US7879789B2, “Surfactant and composition containing the same” (priority 2006, dated 2011)
